Columns and labels:
[1] = 101.33 kPa, Liquid, Capillary tube (Ostwald / Ubbelohde) method
[2] = xn = mol fraction of the nth substance listed; conditions: 101 kPa, Liquid, Capillary tube (Ostwald / Ubbelohde) method, x1 = 0.364

CC1CCCCC1 [methylcyclohexane]
[1]
Conditions | viscosity [mPa·s]
298.61 K | 0.7341
303.63 K | 0.6844
308.95 K | 0.636
317.71 K | 0.5669
323.66 K | 0.5268
328.77 K | 0.4964
333.69 K | 0.469

FC(F)(F)C1(F)C(F)(F)C(F)(F)C(F)(F)C(F)(F)C1(F)F [perfluoro(methylcyclohexane)]
[1]
Conditions | viscosity [mPa·s]
319.2 K | 1.031
320.16 K | 1.011
323.18 K | 0.9582
328.13 K | 0.8787
333.11 K | 0.8074

FC(F)(F)C1(F)C(F)(F)C(F)(F)C(F)(F)C(F)(F)C1(F)F [perfluoro(methylcyclohexane)] + CC1CCCCC1
[2]
Conditions | viscosity [mPa·s]
320.16 K | 0.7472
320.19 K | 0.728
320.34 K | 0.689
320.5 K | 0.6723
320.74 K | 0.6544
321 K | 0.6428
321.39 K | 0.6292
321.96 K | 0.6151
322.62 K | 0.6018
324.05 K | 0.5798
325.5 K | 0.5617
326.98 K | 0.5452
328.41 K | 0.5313
330.08 K | 0.517
331.6 K | 0.5034
333.21 K | 0.4923
334.85 K | 0.4806
336.69 K | 0.4679
338.48 K | 0.4558
340.38 K | 0.4438

From the NIST ThermoML archive (doi:10.1021/je0502593)
